Experiments:
sVEGFR-1 = sVEGFR-1 production by human peripheral blood monocytes (ELISA, real-time PCR); assay type: cell-based; conditions: monocytes with 100 ng/mL GM-CSF plus 10 μM compound vs GM-CSF alone, FIG. 11B
Description: Human peripheral blood mononuclear cells (PBMCs) were isolated from fresh peripheral blood leukocyte source packs (American Red Cross, Columbus Ohio) by density gradient centrifugation over Lymphocyte Separation Medium (Cellgro). Monocytes were purified from total PBMCs by layering over FBS. Monocytes were cultured in endotoxin-free RPMI-1640 supplemented with 1% fetal bovine serum (FBS), 0.1% human serum albumin (HSA), and 10 μg/mL of the endotoxin inhibitor polymyxin B. In some experiments, freshly isolated monocytes were differentiated into macrophages by three-day culture in media containing 10% FBS, 1% PSA (penicillin G sodium, streptomycin sulfate, and amphotericin B), and 20 ng/mL M-CSF. Macrophages were serum-starved for 2 hours prior to stimulation. Monocytes or monocyte-derived macrophages were treated for 24 hours with 10 ng/mL GM-CSF, 10 μM disclosed HIF-2α stabilizer, or an equivalent volume of the vehicle controls (PBS or DMSO, respectively). Cell-free culture supematants were harvested and analyzed for VEGF or sVEGFR-1 by ELISA (R&D Systems).
Human monocytes were left untreated or were stimulated with 100 ng/mL GM-CSF at normoxia or at 0.5% O2. At various time-points, cells were harvested in Trizol reagent (Invitrogen) and RNA was extracted in chloroform and then purified using the RNeasy Minikit (Qiagen). In murine studies, organs harvested at the time of euthanasia were flash-frozen in liquid nitrogen, pulverized in liquid nitrogen, and then dissolved in Trizol. cDNA was generated from 1 μg of RNA using the Superscript First Strand Synthesis System (Invitrogen) and used for real-time PCR using previously described primers and SYBR Green PCR Master Mix (Applied Biosciences), according to the manufacturer's instructions. Data were analyzed according to the comparative threshold method and normalized against the β-actin internal control transcript. Results are semi-quantitative and represent the fold difference in transcript levels in a particular sample as compared with levels in untreated cells from the same donor.

HIF-1α = experiment: Immunoblot for HIF-1α in murine bone marrow-derived macrophages; assay type: cell-based; conditions: murine bone marrow-derived macrophages treated 18 hours; p=0.105; FIG. 11A
Description: To generate bone marrow-derived macrophages (BDMs), femoral bone marrow was isolated and progenitor cells were plated in RPMI-1640 supplemented with 10% FBS, 1% PSA, 10 μg/mL of polymyxin B, and 20 ng/mL of recombinant murine M-CSF. Cells were cultured for 5 days with the addition of fresh M-CSF every other day. Differentiated BDM were serum-starved for 2 hours and then treated with 100 ng/mL of murine GM-CSF and/or 25 μM the disclosed HIF-2α stabilizer in RPMI-1640 containing 1% FBS and 10 μg/mL polymixin B. Culture supernatants were collected after 72 hours and assayed for VEGF and sVEGFR-1 content by ELISA (R&D Systems).
In order to confirm the selective upregulation of HIF-2α by the disclosed HIF-2α stabilizer, murine bone marrow-derived macrophages were treated with the disclosed HIF-2α stabilizer for 18 hours, and cells were then lysed and immunoblotted for HIF-1α and HIF-2α.

O=C(O)CNC(=O)c1ncc(-c2cccc(F)c2)cc1O [disclosed HIF-2α stabilizer, {[5-(3-Fluorophenyl)-3-hydroxypyridine-2-carbonyl]amino} acetic acid]
sVEGFR-1 production, protein level (sVEGFR-1; p=0.007): increased significantly
sVEGFR-1 production, transcript level (sVEGFR-1; p=0.033): increased significantly
HIF-1α protein (HIF-1α): no corresponding increase

Source: patent publication US20170105981A1, “METHODS FOR STABILIZING HYPOXIA INDUCIBLE FACTOR-2 ALPHA AS A METHOD FOR TREATING CANCER” (The Ohio State Innovation Foundation, priority 2011, published 2017)
